Measured values from PubChem BioAssay (NCI).
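Grown in 96-well plates, cells were treated for 48 hours with each compound at five concentrations. Insufficient inhibition: endpoint recorded as highest concentration tested. GI50 marks 50% less growth. The concentration for full growth arrest is given as TGI.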

Experiments:
Test in all cases: DTP human tumour cell line panel, 48 h
EKVX NSCLC = tested on: EKVX NSCLC
HCT-15 colon = tested on: HCT-15 colon
HS 578T breast = tested on: HS 578T breast
HCT-116 colon = tested on: HCT-116 colon
SF-268 CNS = tested on: SF-268 CNS
NCI-H522 lung = tested on: NCI-H522 lung
SNB-19 CNS = tested on: SNB-19 CNS
SK-OV-3 ovarian = tested on: SK-OV-3 ovarian
COLO 205 colon = tested on: COLO 205 colon
ACHN renal = tested on: ACHN renal

| Compound | GI50 (EKVX NSCLC) [µM] | TGI (EKVX NSCLC) [µM] | GI50 (HCT-15 colon) [µM] | TGI (HCT-15 colon) [µM] | GI50 (HS 578T breast) [µM] | TGI (HS 578T breast) [µM] | GI50 (HCT-116 colon) [µM] | TGI (HCT-116 colon) [µM] | GI50 (SF-268 CNS) [µM] | TGI (SF-268 CNS) [µM] | GI50 (NCI-H522 lung) [µM] | TGI (NCI-H522 lung) [µM] | GI50 (SNB-19 CNS) [µM] | TGI (SNB-19 CNS) [µM] | GI50 (SK-OV-3 ovarian) [µM] | TGI (SK-OV-3 ovarian) [µM] | GI50 (COLO 205 colon) [µM] | TGI (COLO 205 colon) [µM] | GI50 (ACHN renal) [µM] | TGI (ACHN renal) [µM] |
| --- | --- | --- | --- | --- | --- | --- | --- | --- | --- | --- | --- | --- | --- | --- | --- | --- | --- | --- | --- | --- |
| COc1cccc2c1C(=O)c1c(O)c3c(c(O)c1C2=O)C[C@@](O)(C(=O)CO)C[C@@H]3OC1CC2C(OCN2CN2COC3C(C)OC(O[C@H]4C[C@](O)(C(=O)CO)Cc5c(O)c6c(c(O)c54)C(=O)c4c(OC)cccc4C6=O)CC32)C(C)O1 (stereo not given in full) | 0.0393 | > 1 | 0.0278 | > 1 | 0.0394 | > 1 | 0.00564 | > 0.39 | 0.00258 | 0.0469 | 0.00638 | 0.0238 | 0.00292 | 0.0256 | 0.00699 | 0.0207 | 0.00664 | 0.0216 | 0.00194 | 0.0345 |
| O=C(N/N=C/c1coc2ccc(Cl)cc2c1=O)c1cc(O)c(O)c(O)c1 | 27.1 | > 100 | 21.5 | 79.7 | 18.3 | 73.3 | 19.3 | 70 | > 100 | > 100 | 38.4 | > 100 | 72.8 | > 100 | > 100 | > 100 | 55.7 | > 100 | 22.1 | 52.5 |
| O=C1c2ccccc2-n2c1nc1ccc([N+](=O)[O-])cc1c2=O |  | > 100 |  | > 100 |  | > 100 |  | > 100 |  | > 100 |  | > 100 |  | > 100 |  | > 100 |  | > 100 |  | > 100 |
| CCOC(=O)c1c(C)n(Cc2ccc(Cl)cc2Cl)c2c1cc(O)c1[nH]c(Cc3ccccc3)nc12 | 9.49 | 22.3 | 3.94 | 18.5 | 1.53 | 3.8 | 2.18 | 4.76 | 2.59 | 6.21 | 3.2 | 15.6 | 5.54 | 23.1 | 16.3 | 32 | 5.04 | 30.1 | 3.49 | 13.4 |
| C(#Cc1ccccc1C#Cc1cnccn1)c1cnccn1 | 35.3 | > 100 | 17.5 | 56 | 34.9 | > 100 | 27.8 | > 100 | 17.3 | 55.3 | > 39.2 | > 61.7 | > 100 | > 100 | 56 | > 100 | 54.8 | > 100 | 19.2 | > 68.9 |
| C[C@H]1CCC/C=C/[C@@H]2C[C@H](O)C[C@H]2[C@H](O)C(O)C(O)C(=O)O1 (stereo not given in full) | 4.24 | > 100 |  |  | 0.702 | > 100 | 3.38 | 19 | 1.19 | > 100 | 2.26 | 4.52 | 3.35 | > 100 | 3.75 | > 100 | 4.07 | > 100 | 3.43 | 20.9 |
| Cc1ccc(S(=O)(=O)NC(=O)Nc2ncn[nH]2)cc1 |  | > 100 |  | > 100 |  | > 100 |  | > 100 |  | > 100 |  | > 100 |  | > 100 |  | > 100 |  | > 100 |  | > 100 |
| CN(C)Cc1nsc(N(C)C)n1 |  | > 100 |  | > 100 |  | > 100 |  | > 100 |  | > 100 |  | > 100 |  | > 100 |  | > 100 |  | > 100 |  | > 100 |
| COc1ccc(C(=O)c2no[n+]([O-])c2C(=O)c2ccc(OC)cc2)cc1 | 7.54 | 22.5 | 3.98 | 14.9 | 17.8 | 51.4 | 1.69 | 3.05 | 3.11 | 7.98 | 0.205 | 0.429 | 42.2 | > 100 | 18 | 32 | 1.77 | 3.37 | 1.9 | 3.4 |
| CC1=C(C(=O)Nc2cc(F)c(F)cc2F)C(c2ccc(N(C)C)cc2)C(C(=O)Nc2cc(F)c(F)cc2F)=C(C)N1 |  | 75.6 | 28.6 | > 100 | 28.2 | > 100 | 30.4 | > 100 |  | > 100 |  | 51 |  | > 100 |  | > 100 |  | > 100 |  | > 87.9 |
| O=C1/C(=C/c2ccccc2)CN(C(=O)/C=C/c2ccccc2)C/C1=C\c1ccccc1 |  | 50.1 |  | 18.3 |  | > 100 |  | 2.02 |  | 38.7 |  | 27.7 |  | 25.9 |  | 57.9 |  | 19.4 |  | 38.5 |
| CC(C)(C)c1ccc(OCCCCCCCN2CCNCC2)cc1 | 3.04 | 12.7 | 1.64 | 3.38 | 1.92 | 4.77 |  |  | 2.36 | 6.65 |  |  | 3.42 | 12.8 | 1.82 | 3.92 | 1.49 | 3.24 |  |  |
| CCOC(=O)c1nc2sc(Cl)cn2c1/C=N/N=C(N)N | 26.1 | 61.6 | 26.8 | > 75.2 | 19.1 | 74.5 | 18 | 40.8 | 32 | > 100 | 20.5 | 47.1 | 30 | > 100 | 44.3 | 98.3 | 15.1 | 37.9 | 22.3 | 53.4 |
| COc1cc(/C=C/C(=O)c2cccc(-n3cc(-c4ccccc4)[nH]c3=O)c2)ccc1O | 6.38 | 36.3 | 2.9 | 14.3 | 3.09 | 18.6 | 1.8 | 4.11 | 2.74 | 8.31 | 1.78 | 6.12 | 3.07 | 11 | 4.02 | 35.5 | 3.85 | 9.91 | 3.46 | 16.3 |
